Results taken from paper PMC10920834, “Synthesis, anticancer activity, and molecular docking of half-sandwich iron(II) cyclopentadienyl complexes with maleimide and phosphine or phosphite ligands” (Scientific Reports, 2024).

Legend:
Assay type in all cases: cell-based, human
[1] = tested on: A549 cells; assay: Cell viability resazurin assay, A549 cells; conditions: for viability of A549 cells relative to control: ± SD
Experimental: (§1) The A549 (human non-small cell lung cancer) cell line was obtained from the American Type Culture Collection (ATCC) and cultured in Dulbecco's Modified Eagle Medium (DMEM) with 10% fetal bovine serum (FBS), 2 mM L-Glutamine, 25 mM HEPES and penicillin/streptomycin solution (100 U/ml and 100 µg/ml, respectively). The HL-60 (human promyelocytic leukemia) cell line was also obtained from the American Type Culture Collection (ATCC) and cultured in Iscove’s Modified Dulbecco's Medium (IMDM) with 15% fetal bovine serum (FBS), 2 mM L-Glutamine, 25 mM HEPES and penicillin/streptomycin solution (100 U/ml and 100 µg/ml, respectively). Both cell lines were cultured in flasks at 37 °C in 5% CO2 and sub-cultured every 2–3 days to maintain exponential growth.
(§2) Firstly, resazurin salt powder was dissolved in sterile 1 × PBS. Cells were then seeded on the 96-well plates in the count of 1 × 10^4 in the case of HL-60 cells and of 5 × 10^4 for PBM cells and of 5 × 10^3 for A549 cells per well. A549 cells were seeded 24 h prior to treatment with the complexes to allow cell adherence to 96-well plate. Iron(II) complexes were added to wells to obtain final concentrations of 0.5, 1, 2.5, 5, 10, 25, 50, 100 and 250 μM. Subsequently, plates were incubated at 37 °C in 5% CO2 for 2 h and 24 h. After that 10 μl of resazurin salt was added to each well and plates again were incubated in 37 °C in 5% CO2 for 2 h. Finally, fluorescence was measured with microplate reader Synergy HT (Bio-Tek Instruments, USA) using an excitation wavelength of 530/25 and an emission wavelength of 590/35 nm. The effects of iron(II) complexes were calculated as the percentage of control fluorescence. IC50 (half maximal inhibitory concentration) values were calculated using a website algorithm (https://www.aatbio.com/tools/ic50-calculator). All assays were performed in octuplicate.

[2] = tested on: HL-60 cells; assay: Cell viability resazurin assay, HL-60 cells; conditions: for viability of HL-60 cells relative to control: ± SD
Experimental: as §1, §2

[3] = tested on: HL-60 cells; assay: Alkaline comet assay, HL-60 cells
Experimental: Selected iron(II) complexes were added to the suspension of the cells to give final concentrations of 1, 5, 10, 25 and 50 μM. HL-60 and A549 cells were incubated with the complexes for 2 h at 37 °C. The comet assay was performed under alkaline conditions according to the procedure of Tokarz et al.[45]. […] Next, the cells were lysed for 1 h at 4 °C in a buffer containing 2.5 M NaCl, 0.1 M EDTA, 10 mM Tris, 1% Triton X-100, pH 10. Following the lysis, the slides were placed in an electrophoresis unit. DNA was allowed to unwind for 20 min in the solution containing 300 mM NaOH and 1 mM EDTA, pH > 13. […] After separation, the slides were washed in water, drained, stained with 2 μg/ml DAPI and covered with cover slips. As a prevention from additional DNA damage, the procedure described above was conducted under limited light or in the dark. Each experiment included the positive control—cells incubated with H2O2 at 20 µM for 15 min on ice (data not shown).
The comets obtained after single cell gel electrophoresis were analysed in the following manner. […] Hundred images of singular comets were randomly selected from each sample and the mean value of DNA in comet tail was taken as an index of DNA damage (expressed in percent).

[4] = tested on: PBM cells; assay: Cell viability resazurin assay, PBM cells; conditions: for viability of PBM cells relative to control: ± SD
Text: Peripheral blood mononuclear (PBM) cells were isolated from a leukocyte-buffy coat collected from the blood of healthy, non-smoking donors at the Blood Bank in Lodz, Poland. The study protocol received approval from the Committee for Research on Human Subjects of the University of Lodz (17/KBBN-UŁ/III/2019). The initial step of isolation process involved mixing buffy coats with PBS in a 1:1 ratio. Subsequently, the mixture was centrifuged using a density gradient of Lymphosep (Cytogen, Zgierz, Poland) at 2200 RPM for 20 min, employing the lowest values for acceleration and deceleration. PBM cells were collected and washed three times by centrifugation with 1 × PBS. Following isolation, the cells were suspended in RPMI 1640 medium.
as §2

## O=C1C=CC(=O)[N-]1.[C-]#[O+].[C-]#[O+].[Fe+2].c1cc[cH-]c1 [compound 1, CpFe(CO)2(η^1-N-maleimidato)]
[1]; 2 h incubation, 0.5 µM
  viability of A549 cells relative to control: 93.79 ± 10.65%
[1]; 2 h incubation, 1 µM
  viability of A549 cells relative to control: 93.56 ± 10.37%
[1]; 2 h incubation, 2.5 µM
  viability of A549 cells relative to control: 78.45 ± 9.98%
[1]; 2 h incubation, 5 µM
  viability of A549 cells relative to control: 67.97±12.88%
[1]; 2 h incubation, 10 µM
  viability of A549 cells relative to control: 63.34 ± 13%
[1]; 2 h incubation, 25 µM
  viability of A549 cells relative to control: 51.29 ± 9.65%
[1]; 2 h incubation, 50 µM
  viability of A549 cells relative to control: 41.64 ± 8.89%
[1]; 2 h incubation, 100 µM
  viability of A549 cells relative to control: 36.49 ± 6.19%
[1]; 2 h incubation, 250 µM
  viability of A549 cells relative to control: 36.35 ± 4.86%
[1]; 24 h incubation
  IC50: 54.2 µM
[1]; 24 h incubation, 0.5 µM
  viability of A549 cells relative to control: 75.31 ± 7.67%
[1]; 24 h incubation, 1 µM
  viability of A549 cells relative to control: 70.02 ± 8.73%
[1]; 24 h incubation, 2.5 µM
  viability of A549 cells relative to control: 73.33 ± 7.65%
[1]; 24 h incubation, 5 µM
  viability of A549 cells relative to control: 104.37 ± 10.70%
[1]; 24 h incubation, 10 µM
  viability of A549 cells relative to control: 108.72 ± 15.90%
[1]; 24 h incubation, 25 µM
  viability of A549 cells relative to control: 82.97 ± 8.04%
[1]; 24 h incubation, 50 µM
  viability of A549 cells relative to control: 50.31 ± 12.68%
[1]; 24 h incubation, 100 µM
  viability of A549 cells relative to control: 9.43 ± 1.69%
[1]; 24 h incubation, 250 µM
  viability of A549 cells relative to control: 2.35 ± 0.49%
[2]; 2 h incubation, 0.5 µM
  viability of HL-60 cells relative to control: 101.68 ± 0.96%
[2]; 2 h incubation, 1 µM
  viability of HL-60 cells relative to control: 101.06 ± 1.48%
[2]; 2 h incubation, 2.5 µM
  viability of HL-60 cells relative to control: 100.83 ± 2.04%
[2]; 2 h incubation, 5 µM
  viability of HL-60 cells relative to control: 97.79 ± 1.25%
[2]; 2 h incubation, 10 µM
  viability of HL-60 cells relative to control: 89.74 ± 2.7%
[2]; 2 h incubation, 25 µM
  viability of HL-60 cells relative to control: 83.96 ± 1.62%
[2]; 2 h incubation, 50 µM
  viability of HL-60 cells relative to control: 73.55 ± 0.27%
[2]; 2 h incubation, 100 µM
  viability of HL-60 cells relative to control: 24.73 ± 1.89%
[2]; 2 h incubation, 250 µM
  viability of HL-60 cells relative to control: 15.71 ± 0.21%
[2]; 24 h incubation
  IC50: 7.69 µM
[2]; 24 h incubation, 0.5 µM
  viability of HL-60 cells relative to control: 106.53 ± 5.45%
[2]; 24 h incubation, 1 µM
  viability of HL-60 cells relative to control: 107.4 ± 3.25%
[2]; 24 h incubation, 2.5 µM
  viability of HL-60 cells relative to control: 109.43 ± 1.41%
[2]; 24 h incubation, 5 µM
  viability of HL-60 cells relative to control: 89.27 ± 2.42%
[2]; 24 h incubation, 10 µM
  viability of HL-60 cells relative to control: 42.91 ± 0.62%
[2]; 24 h incubation, 25 µM
  viability of HL-60 cells relative to control: 37.45 ± 1.48%
[2]; 24 h incubation, 50 µM
  viability of HL-60 cells relative to control: 30.99 ± 0.27%
[2]; 24 h incubation, 100 µM
  viability of HL-60 cells relative to control: 14.21 ± 0.37%
[2]; 24 h incubation, 250 µM
  viability of HL-60 cells relative to control: 3.83 ± 0.21%
[3]; 2 h incubation, 1-50 μM tested
  DNA damage in HL-60 cells (alkaline comet assay), in words: induced DNA damage
[3]; HL-60 cells, 2 h, 50 μM
  DNA in tail (alkaline comet assay): 25%
[4]; 2 h incubation, 0.5 µM
  viability of PBM cells relative to control: 101.07 ± 0.78%
[4]; 2 h incubation, 1 µM
  viability of PBM cells relative to control: 100.74 ± 0.73%
[4]; 2 h incubation, 2.5 µM
  viability of PBM cells relative to control: 99.56 ± 1.96%
[4]; 2 h incubation, 5 µM
  viability of PBM cells relative to control: 99.26 ± 2.82%
[4]; 2 h incubation, 10 µM
  viability of PBM cells relative to control: 101.49 ± 4.25%
[4]; 2 h incubation, 25 µM
  viability of PBM cells relative to control: 99.86 ± 1.87%
[4]; 2 h incubation, 50 µM
  viability of PBM cells relative to control: 100.66 ± 0.97%
[4]; 2 h incubation, 100 µM
  viability of PBM cells relative to control: 100.59 ± 1.01%
[4]; 2 h incubation, 250 µM
  viability of PBM cells relative to control: 93.17 ± 2.92%
[4]; 24 h incubation
  IC50: 106 µM
[4]; 24 h incubation, 0.5 µM
  viability of PBM cells relative to control: 106.05 ± 1.67%
[4]; 24 h incubation, 1 µM
  viability of PBM cells relative to control: 103.84 ± 0.59%
[4]; 24 h incubation, 2.5 µM
  viability of PBM cells relative to control: 99.3 ± 1.2%
[4]; 24 h incubation, 5 µM
  viability of PBM cells relative to control: 91.84 ± 1.72%
[4]; 24 h incubation, 10 µM
  viability of PBM cells relative to control: 85.39 ± 1.19%
[4]; 24 h incubation, 25 µM
  viability of PBM cells relative to control: 89.23 ± 0.44%
[4]; 24 h incubation, 50 µM
  viability of PBM cells relative to control: 78.87 ± 1.76%
[4]; 24 h incubation, 100 µM
  viability of PBM cells relative to control: 50.82 ± 1.08%
[4]; 24 h incubation, 250 µM
  viability of PBM cells relative to control: 21.96 ± 0.71%
